Tested on: G93A mutant SOD1 mouse-derived fibroblasts
Experiment: Western blot analysis of ALS animal model-derived fibroblasts
Format: cell-based
Details: low or high concentration halofuginone for 24 hours; elevation vs Non-TG fibroblasts (FIG. 5b)
Source text: Specifically, primary fibroblasts were isolated from skeletal muscle of 120-day-old non-transformed or G93A mutant SOD1 transgenic mice of Example 4. The excised tissue was placed on 100-mm culture dishes containing HBSS (Hanks' Balanced Salt Solution; Gibco, cat #14175095) and penicillin-streptomycin (Cat #15070-063, Thermo Fisher Scientific) without calcium and magnesium. Muscle tissue was cut on ice blocks. Then, the tissue was cut into 1 mm pieces and enzymatically reacted with 0.2% IV type collagenase (Sigma) at 37° C. for 1 hour. The enzymatic reaction was stopped by the addition of 10 ml of FBS (Gibco). The tissue mixture was centrifuged at 1,800 rpm at 4° C. for 5 min and resuspended with DMEM medium (Welgene) with 10% FBS. Cells were filtered through a 70 μm cell filter (BD Biosciences, San Jose, CA) and incubated in 0.2% gelatin-coated plates with DMEM medium with 10% FBS, 1% penicillin-streptomycin. Then, halofuginone was treated in the same manner as described in Example 1.
Specifically, the lumbar spinal cord or knee joint of the mouse of Example 6 was separated and immediately frozen at −80° C. Each lumbar spinal cord or knee joint was then homogenized and chemically treated to obtain cells. The chemically treated cells, the C2C12 cells of Example 1 or the fibroblasts of Example 5 were dissolved in a RIPA buffer (Thermo, MA, USA) with a protease inhibitor and a phosphatase inhibitor (Roche, IN, USA) and incubated on ice for 30 minutes. After centrifugation of the lysate at 13,000 rpm at 4° C. for 20 min, insoluble substances were removed. Protein concentrations were measured by BCA analysis (Pierce Biotechnology). Equal volumes of cell lysate were loaded onto SDS-PAGE gels for electrophoresis, and transferred onto nitrocellulose membranes (Amersham Protran 0.2 um NC, Amersham Pharmacia Biotech, Piscataway, NJ, USA). The membranes were then blocked with 5% (w/v) skimmilk in 1×TBST for 1 h at room temperature. […] The membranes were then washed, briefly incubated with the SuperSignal West Pico Plus Chemical Substructure (Pierce Biotechnology) according to the manufacturer's procedure, and quantified with an image analyzer (Amersham Pharmacia Biotech, Piscataway, NJ, USA). β-actin was used as an internal control group. The concentration measurement of protein intensity was quantified using Image J (National Institutes of Health). […]

O=C(C[C@H]1NCCC[C@@H]1O)Cn1cnc2cc(Br)c(Cl)cc2c1=O (racemic) [halofuginone]
attenuated: elevated Col-I protein expression | elevated TGF-β protein expression | elevated p-Smad2/Smad2 ratio | elevated α-SMA protein expression

Source: patent publication US20240390377A1, “COMPOSITION FOR THE PREVENTION OR TREATMENT OF NEURODEGENERATIVE OR MOTOR NEURON DISEASES COMPRISING HALOFUGINONE AS AN ACTIVE INGREDIENT” (CURAMYS CO., LTD., priority 2022, published 2024)
